Laboratory results taken from patent US10561629B2, “Food containing glycine and use thereof” (AJINOMOTO CO., INC., priority 2004, dated 2020).
Read-outs that look alike come from different tables or passages of the source.

Experiments:
[1] = 3 g before bed
Procedure: The test participant (body weight 45 kg) took, before going to bed, 3 g of glycine directly or upon addition to various foods (see, Table 3). The content (amount based on amino acid) of an amino acid other than glycine or a substance that can be hydrolyzed to give an amino acid other than glycine in these foods was generally 0 to 4 g. As compared to free of glycine intake, easiness of falling asleep and realization of deep sleep upon waking the next morning were recorded and summarized in Table 3.

[2] = intake at 0.1 g per day; cited from earlier work
[3] = 3 g 1 hr before bedtime
Procedure: A double-blind crossover test aiming at confirmation of the effect of glycine on sleep was performed with 14 male adults (body weight 64-112.5 kg, average 81.2 kg) concerned about snoring and apnea condition during sleep. The test participants took glycine (granules containing citric acid and the like) in an amount equivalent to 3 g of glycine 1 hr before bedtime, and reduced maltose containing components other than glycine (citric acid and the like) and adjusted to an almost indistinguishable taste was used as a placebo.
(1) For the evaluation of sleep condition, overnight polysomnography was used for the measurement.
In addition, the sleep condition of the night before was examined on waking using the sleep questionnaire.

[4] = for mental condition on waking: improved in comparison with placebo / mental condition on waking: no change in comparison with placebo / mental condition on waking: worsened in comparison with placebo / physical condition on waking: improved in comparison with placebo / physical condition on waking: no change in comparison with placebo / physical condition on waking: worsened in comparison with placebo: 3 g 1 hr before bedtime
Procedure: A double-blind crossover test aiming at confirmation of the effect of glycine on sleep was performed with 15 female adults (20s-50s, body weight 46-58 kg). The test participants took glycine (granule containing citric acid and the like) in an amount equivalent to 3 g of glycine 1 hr before bedtime, and reduced maltose containing components other than glycine (citric acid and the like) and adjusted to an almost indistinguishable taste was used as a placebo. For the test, glycine and placebo were each taken for 4 days with an interval of a 3 day non-intake period, totaling 2 weeks.
In the Table, the values of glycine and placebo show the test participant average of the points of evaluation in 8 levels in the sleep questionnaire “depth of sleep”. […] In addition, the p value is a statistical value showing the probability when the difference between glycine and placebo was hypothesized to be null. Particularly, this value of 0.05 or below is considered to indicate a significant difference.
(4) At the end of each 1 week test period, a question was asked about the soundness of sleep.

[5] = for Heavy sleepiness (1 pm to 5 pm next afternoon) / Mild sleepiness (1 pm to 5 pm next afternoon) / No sleepiness (1 pm to 5 pm next afternoon): intake of glycine 1.5 g before sleep
Excerpt: Three test participants (test participants A-C, body weight 64-74 kg) who were then visiting the U.S. for 5 days took glycine (1.5 g, substantially pure tablet glycine containing only excipient and flavor) before sleep and evaluated the sleepiness felt from 1 pm to 5 pm the next afternoon in 3 levels as compared to the absence of glycine.

[6] = Voluntary comments on quality of sleep, 77 participants (Experimental Example 5); details: 3 g glycine
[7] = Excerpt: Table 5 reports the bowel movements on the next morning and the corresponding number of days.
[8] = test participant A, in water before bed
Excerpt: The test participant A (body weight 45 kg) took glycine (substantially pure powder) in an amount shown in Table 6 before going to bed by dissolving same in water, and recorded the level of realization of deep sleep. When the realization of deep sleep increased than usual, “+” was marked, when the realization of deep sleep was almost the same as usual, “±” was marked and when it became worse, “−” was marked.

[9] = addition to Japanese tea, 10 days of testing
[10] = addition to herb tea, 5 days of testing
[11] = addition to hot milk, 4 days of testing
[12] = addition to hot water or water, 14 days of testing
[13] = addition to yoghurt, 7 days of testing
[14] = participants 32 years old or older (6)
[15] = participants with PSQI not less than 9 (7)
[16] = SAM lassitude check list, 4-day total, difference by 1 point or more vs placebo, 15 participants
[17] = SAM lassitude check list, 4-day total, difference by 4 points or more vs placebo, 15 participants
[18] = out of 15 participants, end of each 1 week test period
[19] = participants 32 years old or older
[20] = voluntary comments of 77 participants
[21] = test participant A, tablet intake (1 g) before bed
[22] = test participant B, intake (3 g) with yoghurt before bed
[23] = test participant B, powder intake (3 g) before bed

Compound: NCC(=O)O [glycine, Glycine]
- Improved easiness of falling asleep [1, 9]: 9 days
- Improved realization of deep sleep [1, 9]: 10 days
- Improved easiness of falling asleep [1, 10]: 5 days
- Improved realization of deep sleep [1, 10]: 5 days
- Improved easiness of falling asleep [1, 11]: 4 days
- Improved realization of deep sleep [1, 11]: 4 days
- Improved easiness of falling asleep [1, 12]: 14 days
- Improved realization of deep sleep [1, 12]: 14 days
- Improved easiness of falling asleep [1, 13]: 7 days
- Improved realization of deep sleep [1, 13]: 7 days
- Improved easiness of falling asleep ([1]; powder, 3 days of testing): 3 days
- Improved realization of deep sleep ([1]; powder, 3 days of testing): 3 days
- memory and attention [2]: increases memory and attention
- slow wave sleep (%) in sleep onset initial stage ([3]; early stage (1 hr) of sleep onset, placebo 6.4, p value 0.020): 12.0%
- lights-out - sleep onset ([3]; placebo 16.3, p value 0.322): 13.3 min
- lights-out - slow wave sleep ([3]; placebo 103.4, p value 0.042): 52.2 min
- mental condition on waking: improved in comparison with placebo [4, 14]: 5 person
- mental condition on waking: no change in comparison with placebo [4, 14]: 1 person
- mental condition on waking: worsened in comparison with placebo [4, 14]: 0 person
- physical condition on waking: improved in comparison with placebo [4, 14]: 5 person
- physical condition on waking: no change in comparison with placebo [4, 14]: 1 person
- physical condition on waking: worsened in comparison with placebo [4, 14]: 0 person
- mental condition on waking: improved in comparison with placebo [4, 15]: 5 person
- mental condition on waking: no change in comparison with placebo [4, 15]: 2 person
- mental condition on waking: worsened in comparison with placebo [4, 15]: 0 person
- physical condition on waking: improved in comparison with placebo [4, 15]: 5 person
- physical condition on waking: no change in comparison with placebo [4, 15]: 1 person
- physical condition on waking: worsened in comparison with placebo [4, 15]: 1 person
- Increase of lassitude on waking, effective criterion [4, 16]: 3 participants
- No change of lassitude on waking, effective criterion [4, 16]: 1 participants
- Reduction of lassitude on waking, effective [4, 16]: 11 participants
- Increase of lassitude on waking, remarkably effective criterion [4, 17]: 2 participants
- No change of lassitude on waking, remarkably effective criterion [4, 17]: 6 participants
- Reduction of lassitude on waking, remarkably effective [4, 17]: 7 participants
- Sleep questionnaire "depth of sleep" ([4]; average points, 8 levels, participants 32 years old or older, placebo 4.13, P value 0.042): 4.88
- soundness of sleep: participants answering that both were the same [4, 18]: 8 participants
- soundness of sleep: participants answering the week of glycine intake was fine [4, 18]: 6 participants
- soundness of sleep: participants answering the week of placebo intake was fine [4, 18]: one
- Effect of clearing head the next morning: effective in comparison with placebo [4, 19]: 5 person
- Effect of clearing head the next morning: no change in comparison with placebo [4, 19]: 1 person
- Effect of clearing head the next morning: worsened in comparison with placebo [4, 19]: 0 person
- sleepiness during the next daytime ([5]; all three test participants, 1.5 g before sleep, compared to absence of glycine): felt a lower level of sleepiness
- Heavy sleepiness (1 pm to 5 pm next afternoon) ([5]; test participant A): 0 days
- Mild sleepiness (1 pm to 5 pm next afternoon) ([5]; test participant A): 2 days
- No sleepiness (1 pm to 5 pm next afternoon) ([5]; test participant A): 2 days
- Heavy sleepiness (1 pm to 5 pm next afternoon) ([5]; test participant B): 0 days
- Mild sleepiness (1 pm to 5 pm next afternoon) ([5]; test participant B): 1 days
- No sleepiness (1 pm to 5 pm next afternoon) ([5]; test participant B): 2 days
- Heavy sleepiness (1 pm to 5 pm next afternoon) ([5]; test participant C): 0 days
- Mild sleepiness (1 pm to 5 pm next afternoon) ([5]; test participant C): 0 days
- No sleepiness (1 pm to 5 pm next afternoon) ([5]; test participant C): 1 days
- participants commenting that no effect was found ([6]; out of 77 participants): 17 participants
- participants commenting that the quality of sleep was improved ([6]; out of 77 participants): 58 participants
- participants commenting that the quality was degraded ([6]; out of 77 participants): 2 participants
- Awakening was fresh: Degrading effect [6, 20]: 1 person
- Awakening was fresh: Enhancing effect on quality of sleep [6, 20]: 24 person
- Deep sleep was realized: Degrading effect [6, 20]: 0 person
- Deep sleep was realized: Enhancing effect on quality of sleep [6, 20]: 8 person
- Did not wake up at midnight: Degrading effect [6, 20]: 1 person
- Did not wake up at midnight: Enhancing effect on quality of sleep [6, 20]: 6 person
- Fell asleep easily: Degrading effect [6, 20]: 0 person
- Fell asleep easily: Enhancing effect on quality of sleep [6, 20]: 6 person
- Had no dream: Degrading effect [6, 20]: 0 person
- Had no dream: Enhancing effect on quality of sleep [6, 20]: 4 person
- Sleep was deeper: Degrading effect [6, 20]: 0 person
- Sleep was deeper: Enhancing effect on quality of sleep [6, 20]: 10 person
- Slept well: Degrading effect [6, 20]: 0 person
- Slept well: Enhancing effect on quality of sleep [6, 20]: 2 person
- Snoring decreased: Degrading effect [6, 20]: 0 person
- Snoring decreased: Enhancing effect on quality of sleep [6, 20]: 19 person
- sleepiness during daytime reduced: Degrading effect [6, 20]: 0 person
- sleepiness during daytime reduced: Enhancing effect on quality of sleep [6, 20]: 4 person
- No bowel movement (next morning) [7, 21]: 2 days
- Presence of bowel movement (next morning) [7, 21]: 10 days
- No bowel movement (next morning) [7, 22]: 0 days
- Presence of bowel movement (next morning) [7, 22]: 4 days
- No bowel movement (next morning) [7, 23]: 1 days
- Presence of bowel movement (next morning) [7, 23]: 7 days
- Realization of deep sleep ([8]; 1/1 teaspoon, general amount 2.5 g): +
- Realization of deep sleep ([8]; ¼ teaspoon, general amount 0.6 g): +
- Realization of deep sleep ([8]; ½ teaspoon, general amount 1.2 g): +
